Measurements published in publication PMC11111404, “Discovery of potent small-molecule inhibitors of lipoprotein(a) formation” (Nature, 2024).
Where two headings read alike, the source gives them in different places.

Tests used:
[1] = target: T1, K-2 to K-3 domains of rat plasminogen (Rattus norvegicus, UniProt Q01177); assay: ITC binding to rat plasminogen K-2 to K-3
T1 construct: made in house
T1 sequence (Q01177 184-352 limits assumed): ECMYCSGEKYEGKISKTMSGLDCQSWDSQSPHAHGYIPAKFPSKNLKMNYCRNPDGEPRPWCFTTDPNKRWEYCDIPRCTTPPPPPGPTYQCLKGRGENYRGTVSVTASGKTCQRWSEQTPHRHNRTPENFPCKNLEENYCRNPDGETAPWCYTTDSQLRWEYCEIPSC
Description: The nucleotide sequence encoding the human LPA gene (NP_005568.2) was inserted into a mammalian expression vector containing a cytomegalovirus promoter. Protein expression was performed by transient transfection of human embryonic kidney 293 (HEK293) cells cultured in serum-free medium. The culture medium was collected five days after transfection and human apo(a) protein was purified using L-lysine affinity chromatography. Nucleotide sequences encoding various KIV domains of human apo(a) and human and rat plasminogen were inserted into a pET21a Escherichia coli expression vector. […] All protein concentrations were determined by A280. […] The microsyringe was loaded with a solution of the respective compounds, with the concentration measured by quantitative nuclear magnetic resonance, and was inserted into the calorimetric cell prefilled with the respective recombinant proteins of known concentration in ITC buffer. […] Thermodynamic parameters were calculated using the basic equation of thermodynamics (ΔG = ΔH - TΔS = -RTlnKd), where ΔG, ΔH and ΔS are the changes in free energy, enthalpy and entropy of binding, respectively; Kd is the equilibrium dissociation constant; T is the absolute temperature ([…]); and R is the gas constant (1.987 cal mol^-1 K^-^1). […]

[2] = Pharmacokinetics in monkey plasma after oral dosing; type: in vivo; details: for AUC(0-t): day 15, read-out: AUC(0-96 hr)
Description: Plasma samples were collected from all monkeys before dosing and at four-hour time points only on days 1, 3, 5, 9 and 14. A full PK profile was obtained in the first three monkeys of each dose group on day 15, collecting samples before dosing and 1, 2, 4, 8, 12, 24, 48 and 96 h after dosing. Concentrations of compounds were evaluated in plasma samples using a non-GLP LC–MS/MS assay. The non-compartmental plasma PK parameters were calculated using Watson (v.7.5).

| Kd [1] [µM] | fold higher affinity for rat than human plasminogen K-2 to K-3 [1] | Tmax ([2]; Chinese cynomolgus, oral 1 mg/kg, day 15) [h] | Cmax ([2]; Chinese cynomolgus, oral 10 mg/kg, day 15) [µM] | AUC(0-t) ([2]; Chinese cynomolgus, oral 10 mg/kg) [µM·h] | Tmax ([2]; Chinese cynomolgus, oral 100 mg/kg, day 15) [h] | AUC(0-t) ([2]; cynomolgus, oral 100 mg/kg) [µM·h] | Compound |
| --- | --- | --- | --- | --- | --- | --- | --- |
| < 0.01 | more than 100 fold |  |  |  |  |  | Cl.Cl.O=C(Nc1cccc(C[C@H](C(=O)O)[C@H]2CCNC2)c1)Nc1cccc(C[C@H](C(=O)O)[C@H]2CCNC2)c1 [LSN3441732] |
|  |  | 7 ± 5.7 | 3.47 | 207 | 1 ± 1 | 294 | O=C(O)[C@@H](Cc1cccc(CN(Cc2cccc(C[C@H](C(=O)O)[C@H]3CCNC3)c2)Cc2cccc(C[C@H](C(=O)O)[C@H]3CCNC3)c2)c1)[C@H]1CCNC1 [LY3473329] |
